From US20070254312A1, “Protein Kinase Inhibitors and Methods for Identiying Same” (priority 2004, published 2007)
Starred links: 1 amine or outer side, 2 acyl side, 3 side chain; linkers in the order of their positions; H or OH if unused. Non-standard residues stand in square brackets, D forms with d. Residues, ends and D or L forms follow the SMILES beside them. *: point of attachment. Benzoyl(4-(pyrrol-1-yl)) = O=C(c1ccc(-n2cccc2)cc1)*; Phenylacetyl(3,4-Cl2) = O=C(Cc1ccc(Cl)c(Cl)c1)*; Cysteamide = C(CS[*:3])N[*:1]; Dap = NC[C@H](N)C(=O)O

Tests used:
PKCη [1] = target: T1, PKCη (Homo sapiens, UniProt P24723); design: purchased Panvera; details: literature values; relative to most potently inhibited isoform (=1); cited from earlier work
PKCθ [2] = target: T2, PKCθ (Homo sapiens, UniProt Q04759); assay: PKC isoform assay, Example 1; type: biochemical; design: purchased Pan Vera
Excerpt: (§1) Protein Kinase C Assay (general). The peptides Ac-Ser-Phe-Arg-Arg-Arg-NH2 (for PKC α, β and γ) and acetyl-[…]NH2 (for PKC ε and ζ) were used as substrates.

PKCδ [3] = target: T3, PKCδ (Homo sapiens, UniProt Q05655); assay: PKC isoform assay, Example 1; type: biochemical; design: purchased Pan Vera
Excerpt: as §1

PKCη [4] = target: T1, PKCη; assay: PKC isoform assay, Example 1; type: biochemical; design: purchased Pan Vera
Excerpt: as §1

PKCθ [5] = target: T2, PKCθ; design: purchased Panvera; details: literature values; relative to most potently inhibited isoform (=1); cited from earlier work
PKCγ = PKCγ (Homo sapiens, UniProt P05129); assay: PKC isoform assay, Example 1; type: biochemical; design: purchased Pan Vera
Description: (§2) Protein Kinase C Assay (general). The peptides […] (for PKC α, β and γ) and acetyl-[…] (for PKC ε and ζ) were used as substrates. […] Total reaction volume was 50 μL. […] Following an additional 5 min incubation at ambient temperature, 75 μL from each reaction well was transferred into each well of a Unifilter (P81 cellulose phosphate paper) assay plate and washed four times with 0.1% phosphoric acid in water. […] IC50 values were calculated using GraFit (Erithacus Software Limited) and Ki values were calculated using Enzyme Kinetics, SigmaPlot (SPSS Inc.)

PKCα = PKCα (Homo sapiens, UniProt P17252); assay: Protein Kinase Cα radioactive assay, peptide substrate Ac-Ser-Phe-Arg-Arg-Arg-NH2 (Example 1); type: biochemical; design: purchased Pan Vera; details: versus variable peptide substrate
Description: as §2, with “Inc.) […] An analogous protocol was employed for peptide 4 versus variable [[…]]. […] An analogous protocol was employed for peptide 4 versus variable [ATP]. Protein Kinase Cα Assay (Ki determination for peptide 6 versus variable […] substrate). […] The reaction was initiated as described above. […] Following an additional 5 min incubation at ambient temperature, 75 μL from each reaction well was transferred into each well of a Unifilter (P81 cellulose phosphate paper) assay plate and washed four times with 0.1% phosphoric acid in water. […] IC50 values were calculated using GraFit (Erithacus Software Limited) and Ki values were calculated using Enzyme Kinetics, SigmaPlot (SPSS Inc.)” for “Inc.)”

PKCε = target: T4, PKCε (Homo sapiens, UniProt Q02156); design: purchased Panvera; details: literature values; relative to most potently inhibited isoform (=1); cited from earlier work
T4 sequence (Q02156 1-737): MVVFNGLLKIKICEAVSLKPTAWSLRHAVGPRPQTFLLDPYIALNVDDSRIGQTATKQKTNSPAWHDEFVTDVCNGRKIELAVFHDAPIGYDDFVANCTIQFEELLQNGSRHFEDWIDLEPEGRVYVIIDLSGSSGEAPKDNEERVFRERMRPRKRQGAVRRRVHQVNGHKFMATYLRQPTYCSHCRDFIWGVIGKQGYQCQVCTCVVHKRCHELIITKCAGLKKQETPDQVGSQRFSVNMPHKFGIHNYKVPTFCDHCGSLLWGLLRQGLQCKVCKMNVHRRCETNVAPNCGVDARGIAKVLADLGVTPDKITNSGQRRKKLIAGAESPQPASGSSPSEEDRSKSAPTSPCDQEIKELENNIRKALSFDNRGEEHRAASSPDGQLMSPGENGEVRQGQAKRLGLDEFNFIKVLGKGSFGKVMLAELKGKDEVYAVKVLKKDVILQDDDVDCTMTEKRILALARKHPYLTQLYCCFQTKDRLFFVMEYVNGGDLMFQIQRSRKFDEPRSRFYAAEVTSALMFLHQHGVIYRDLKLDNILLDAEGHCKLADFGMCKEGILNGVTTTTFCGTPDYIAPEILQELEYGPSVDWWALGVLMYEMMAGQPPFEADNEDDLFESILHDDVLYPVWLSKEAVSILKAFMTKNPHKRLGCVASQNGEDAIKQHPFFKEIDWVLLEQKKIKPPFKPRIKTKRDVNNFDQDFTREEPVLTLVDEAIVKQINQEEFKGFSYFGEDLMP

PKCδ [6] = target: T3, PKCδ; design: purchased Panvera; details: literature values; relative to most potently inhibited isoform (=1); cited from earlier work
PKCζ = target: T5, PKCζ (Homo sapiens, UniProt Q05513); design: purchased Panvera; details: literature values; relative to most potently inhibited isoform (=1); cited from earlier work
T5 sequence (Q05513 1-592): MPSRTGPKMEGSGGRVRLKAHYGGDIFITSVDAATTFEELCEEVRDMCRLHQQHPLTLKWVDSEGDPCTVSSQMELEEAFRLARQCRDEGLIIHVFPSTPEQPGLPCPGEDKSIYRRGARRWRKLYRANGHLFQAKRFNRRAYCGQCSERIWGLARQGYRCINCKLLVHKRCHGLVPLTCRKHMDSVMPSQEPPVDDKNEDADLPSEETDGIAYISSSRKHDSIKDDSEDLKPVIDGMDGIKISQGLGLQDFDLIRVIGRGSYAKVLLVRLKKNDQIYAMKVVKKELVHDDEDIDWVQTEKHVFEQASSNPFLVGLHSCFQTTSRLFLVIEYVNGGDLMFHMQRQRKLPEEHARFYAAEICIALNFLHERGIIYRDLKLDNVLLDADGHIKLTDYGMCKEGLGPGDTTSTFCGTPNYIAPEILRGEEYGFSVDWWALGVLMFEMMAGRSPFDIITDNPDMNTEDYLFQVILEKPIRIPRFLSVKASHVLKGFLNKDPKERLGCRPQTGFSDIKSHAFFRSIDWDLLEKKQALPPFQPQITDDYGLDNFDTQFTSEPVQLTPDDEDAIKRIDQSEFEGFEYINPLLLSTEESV

PKCβ = target: T6, PKCβ (Homo sapiens, UniProt P05771); assay: PKC isoform assay, Example 1; type: biochemical
T6 construct: purchased Pan Vera
Description: as §2

PKC β1 = PKC β1 (Homo sapiens, UniProt P05771); details: literature values; relative to most potently inhibited isoform (=1); cited from earlier work
PKC β1, sequence (P05771 whole entry, canonical isoform): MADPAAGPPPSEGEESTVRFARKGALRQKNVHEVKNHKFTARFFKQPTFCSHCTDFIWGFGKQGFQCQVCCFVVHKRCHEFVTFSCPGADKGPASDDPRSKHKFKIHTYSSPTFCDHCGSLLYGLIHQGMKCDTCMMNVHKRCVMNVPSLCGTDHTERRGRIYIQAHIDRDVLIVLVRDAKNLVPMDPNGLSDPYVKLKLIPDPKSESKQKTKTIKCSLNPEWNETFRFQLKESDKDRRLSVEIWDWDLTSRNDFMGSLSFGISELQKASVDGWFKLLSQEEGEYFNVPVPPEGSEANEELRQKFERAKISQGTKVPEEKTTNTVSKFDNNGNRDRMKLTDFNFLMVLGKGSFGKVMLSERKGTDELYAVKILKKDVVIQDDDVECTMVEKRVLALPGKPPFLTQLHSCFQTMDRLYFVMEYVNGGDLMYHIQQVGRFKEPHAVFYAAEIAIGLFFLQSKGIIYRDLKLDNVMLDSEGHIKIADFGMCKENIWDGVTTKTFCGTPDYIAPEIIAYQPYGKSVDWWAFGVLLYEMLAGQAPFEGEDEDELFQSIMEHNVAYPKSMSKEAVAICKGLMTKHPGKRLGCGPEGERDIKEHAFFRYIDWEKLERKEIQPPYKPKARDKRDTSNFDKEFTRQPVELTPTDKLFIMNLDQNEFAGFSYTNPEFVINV

T1 sequence (P24723 whole entry, canonical isoform): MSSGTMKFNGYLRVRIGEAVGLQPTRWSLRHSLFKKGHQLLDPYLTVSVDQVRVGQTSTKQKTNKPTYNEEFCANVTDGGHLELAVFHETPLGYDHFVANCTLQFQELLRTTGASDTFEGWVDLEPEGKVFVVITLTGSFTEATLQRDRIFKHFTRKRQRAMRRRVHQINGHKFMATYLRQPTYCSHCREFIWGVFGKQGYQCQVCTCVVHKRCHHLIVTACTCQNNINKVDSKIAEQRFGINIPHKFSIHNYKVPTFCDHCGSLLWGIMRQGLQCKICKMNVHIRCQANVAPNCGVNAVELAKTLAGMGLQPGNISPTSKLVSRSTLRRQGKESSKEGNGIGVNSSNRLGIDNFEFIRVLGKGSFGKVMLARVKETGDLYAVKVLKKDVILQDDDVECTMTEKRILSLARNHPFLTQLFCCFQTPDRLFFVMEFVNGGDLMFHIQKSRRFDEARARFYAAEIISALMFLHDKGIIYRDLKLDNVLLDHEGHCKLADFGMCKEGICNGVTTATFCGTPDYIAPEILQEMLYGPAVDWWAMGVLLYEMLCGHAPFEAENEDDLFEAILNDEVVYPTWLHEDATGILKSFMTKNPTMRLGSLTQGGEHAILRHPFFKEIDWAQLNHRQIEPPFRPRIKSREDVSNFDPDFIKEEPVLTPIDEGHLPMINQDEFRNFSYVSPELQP
T2 sequence (Q04759 whole entry, canonical isoform): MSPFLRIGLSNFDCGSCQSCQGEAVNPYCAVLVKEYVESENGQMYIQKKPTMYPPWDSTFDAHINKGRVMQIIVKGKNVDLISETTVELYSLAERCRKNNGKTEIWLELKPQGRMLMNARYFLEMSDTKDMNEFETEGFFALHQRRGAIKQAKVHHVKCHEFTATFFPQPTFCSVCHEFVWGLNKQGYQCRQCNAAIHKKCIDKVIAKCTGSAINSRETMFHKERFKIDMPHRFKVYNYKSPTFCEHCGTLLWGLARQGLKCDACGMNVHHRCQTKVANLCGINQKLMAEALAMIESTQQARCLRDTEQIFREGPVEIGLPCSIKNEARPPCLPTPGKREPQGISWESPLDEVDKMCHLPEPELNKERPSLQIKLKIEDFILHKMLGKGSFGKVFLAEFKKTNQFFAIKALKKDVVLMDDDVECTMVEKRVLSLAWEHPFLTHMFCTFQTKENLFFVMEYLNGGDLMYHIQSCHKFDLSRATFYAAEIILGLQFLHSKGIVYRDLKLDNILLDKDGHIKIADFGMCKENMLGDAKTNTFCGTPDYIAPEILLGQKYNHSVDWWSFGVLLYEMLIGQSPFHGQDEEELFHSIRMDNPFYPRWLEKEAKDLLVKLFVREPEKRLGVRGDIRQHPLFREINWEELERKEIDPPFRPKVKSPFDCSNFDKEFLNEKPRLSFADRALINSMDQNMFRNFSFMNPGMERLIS
T3 sequence (Q05655 whole entry, canonical isoform): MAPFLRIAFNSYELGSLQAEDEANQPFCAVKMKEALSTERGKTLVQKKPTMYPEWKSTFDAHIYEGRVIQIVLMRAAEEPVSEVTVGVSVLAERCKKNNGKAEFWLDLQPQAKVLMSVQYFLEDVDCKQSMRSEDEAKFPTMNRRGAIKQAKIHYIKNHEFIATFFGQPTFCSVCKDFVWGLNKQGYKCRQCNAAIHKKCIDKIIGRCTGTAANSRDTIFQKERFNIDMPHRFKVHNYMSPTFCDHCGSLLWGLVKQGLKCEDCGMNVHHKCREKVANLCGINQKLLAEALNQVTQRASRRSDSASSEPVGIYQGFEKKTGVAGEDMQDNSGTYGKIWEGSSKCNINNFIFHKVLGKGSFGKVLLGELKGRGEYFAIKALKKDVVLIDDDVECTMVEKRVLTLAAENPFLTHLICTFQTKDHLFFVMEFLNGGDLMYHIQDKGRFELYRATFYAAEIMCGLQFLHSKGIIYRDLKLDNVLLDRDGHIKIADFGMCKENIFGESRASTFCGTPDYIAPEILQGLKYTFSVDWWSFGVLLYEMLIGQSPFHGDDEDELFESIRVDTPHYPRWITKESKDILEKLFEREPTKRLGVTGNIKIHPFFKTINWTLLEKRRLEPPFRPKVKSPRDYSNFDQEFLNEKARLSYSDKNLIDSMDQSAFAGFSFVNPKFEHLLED
T6 sequence (P05771 whole entry, canonical isoform): as the sequence (P05771 whole entry, canonical isoform) above

selectivity for PKCα versus PKCθ (PKCθ [2]): 1210 fold
selectivity for PKCα versus PKCδ (PKCδ [3]): 2730 fold
selectivity for PKCα versus PKCη (PKCη [4]): 1310 fold
selectivity for PKCα versus PKCγ (PKCγ): 580 fold
Ki (PKCα): 0.8 nM
selectivity for PKCα versus PKCβ (PKCβ): 385 fold
SMILES: CC(C)C[C@H](NC(=O)[C@H](C)NC(=O)CNC(=O)[C@H](CCCNC(=N)N)NC(=O)[C@H](CCCNC(=N)N)NC(=O)[C@H](C)NC(=O)Cc1ccc(Cl)c(Cl)c1)C(=O)N[C@@H](CCCNC(=N)N)C(=O)N[C@@H](CNC(=O)c1ccc(-n2cccc2)cc1)C(=O)N[C@@H](C)C(=O)NCCS [Compound 6] ({Phenylacetyl(3,4-Cl2)}-ARRGALR[Dap](Benzoyl(4-(pyrrol-1-yl)))A-Cysteamide)
Fold selectivity (IC50), PKC η (PKCη [1]): 1310 fold
Fold selectivity (IC50), PKC θ (PKCθ [5]): 1210 fold
Fold selectivity (IC50), PKC ε (PKCε): 600 fold
Fold selectivity (IC50), PKC δ (PKCδ [6]): 2730 fold
Fold selectivity (IC50), PKC ζ (PKCζ): 640 fold
Fold selectivity (IC50), PKC β1 (PKC β1): 385 fold
